In patent publication US8129417B2, “Substituted octahydrocyclopenta[C]pyrrol-4-amines as calcium channel blockers” (Abbott Laboratories, priority 2008, dated 2012) one finds IC50 and inhibition data, which are given here for 28 compounds.

The structures appear in SMILES notation.

Sequence of human Cav2.2 (Q00975 whole entry): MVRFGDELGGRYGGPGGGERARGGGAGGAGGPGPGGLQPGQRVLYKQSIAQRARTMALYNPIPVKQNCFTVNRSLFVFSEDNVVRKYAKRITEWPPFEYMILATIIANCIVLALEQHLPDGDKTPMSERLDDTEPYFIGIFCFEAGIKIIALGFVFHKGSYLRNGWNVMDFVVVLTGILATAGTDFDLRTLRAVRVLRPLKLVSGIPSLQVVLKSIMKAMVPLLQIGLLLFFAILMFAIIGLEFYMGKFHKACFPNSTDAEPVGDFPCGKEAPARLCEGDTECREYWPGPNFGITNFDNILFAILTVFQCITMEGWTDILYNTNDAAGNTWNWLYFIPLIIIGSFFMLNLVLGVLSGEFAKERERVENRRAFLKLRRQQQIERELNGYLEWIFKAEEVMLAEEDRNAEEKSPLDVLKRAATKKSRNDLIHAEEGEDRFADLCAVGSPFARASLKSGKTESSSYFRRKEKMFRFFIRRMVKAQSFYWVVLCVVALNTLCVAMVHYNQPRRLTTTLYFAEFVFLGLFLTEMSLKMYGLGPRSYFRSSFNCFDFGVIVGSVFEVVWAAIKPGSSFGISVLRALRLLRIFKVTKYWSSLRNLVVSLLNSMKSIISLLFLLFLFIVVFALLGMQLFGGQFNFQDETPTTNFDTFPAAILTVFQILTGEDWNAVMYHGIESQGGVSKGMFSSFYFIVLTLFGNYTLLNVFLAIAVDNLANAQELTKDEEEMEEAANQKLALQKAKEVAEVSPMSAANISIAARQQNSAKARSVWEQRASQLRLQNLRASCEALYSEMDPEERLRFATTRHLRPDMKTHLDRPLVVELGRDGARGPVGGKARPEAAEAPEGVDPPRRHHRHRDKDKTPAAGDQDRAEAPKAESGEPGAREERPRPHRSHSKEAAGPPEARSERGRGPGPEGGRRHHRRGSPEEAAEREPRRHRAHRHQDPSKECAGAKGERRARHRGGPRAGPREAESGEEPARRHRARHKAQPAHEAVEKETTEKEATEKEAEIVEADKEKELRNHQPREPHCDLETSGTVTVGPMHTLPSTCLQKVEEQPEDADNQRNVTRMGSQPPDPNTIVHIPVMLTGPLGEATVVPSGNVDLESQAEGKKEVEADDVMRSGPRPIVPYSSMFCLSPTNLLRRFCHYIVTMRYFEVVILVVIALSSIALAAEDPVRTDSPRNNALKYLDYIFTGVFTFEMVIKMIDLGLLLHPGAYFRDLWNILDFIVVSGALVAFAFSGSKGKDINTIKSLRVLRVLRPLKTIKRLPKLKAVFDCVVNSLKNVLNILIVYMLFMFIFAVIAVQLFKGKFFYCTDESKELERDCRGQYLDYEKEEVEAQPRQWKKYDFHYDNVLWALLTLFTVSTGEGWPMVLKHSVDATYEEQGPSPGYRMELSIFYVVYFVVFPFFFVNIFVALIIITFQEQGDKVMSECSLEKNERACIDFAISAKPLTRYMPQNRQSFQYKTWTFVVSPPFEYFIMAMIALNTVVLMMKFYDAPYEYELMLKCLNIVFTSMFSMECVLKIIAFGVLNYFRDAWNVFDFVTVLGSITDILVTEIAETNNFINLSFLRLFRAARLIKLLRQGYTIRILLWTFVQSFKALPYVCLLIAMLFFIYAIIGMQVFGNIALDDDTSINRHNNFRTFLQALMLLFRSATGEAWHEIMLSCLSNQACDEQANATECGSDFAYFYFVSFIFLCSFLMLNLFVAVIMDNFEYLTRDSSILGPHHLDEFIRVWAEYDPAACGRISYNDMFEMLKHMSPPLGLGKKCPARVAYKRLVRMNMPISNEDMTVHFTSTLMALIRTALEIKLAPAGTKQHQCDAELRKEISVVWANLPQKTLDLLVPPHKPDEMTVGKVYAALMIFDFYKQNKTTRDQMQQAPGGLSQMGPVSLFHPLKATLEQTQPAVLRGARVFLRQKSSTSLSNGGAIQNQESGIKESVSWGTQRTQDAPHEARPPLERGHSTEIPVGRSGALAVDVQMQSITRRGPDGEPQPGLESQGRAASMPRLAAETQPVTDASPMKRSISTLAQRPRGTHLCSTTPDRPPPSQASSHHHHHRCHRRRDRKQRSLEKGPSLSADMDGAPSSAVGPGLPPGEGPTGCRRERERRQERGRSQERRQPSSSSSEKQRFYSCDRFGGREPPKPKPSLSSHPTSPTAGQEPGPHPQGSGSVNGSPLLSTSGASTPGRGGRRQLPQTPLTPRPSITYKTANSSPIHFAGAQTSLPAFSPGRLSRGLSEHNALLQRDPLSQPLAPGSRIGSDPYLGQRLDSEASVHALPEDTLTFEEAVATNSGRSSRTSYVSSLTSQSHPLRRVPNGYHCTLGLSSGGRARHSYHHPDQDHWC
Sequence of human Cav2.2 (P54289 25-946 partner limits assumed): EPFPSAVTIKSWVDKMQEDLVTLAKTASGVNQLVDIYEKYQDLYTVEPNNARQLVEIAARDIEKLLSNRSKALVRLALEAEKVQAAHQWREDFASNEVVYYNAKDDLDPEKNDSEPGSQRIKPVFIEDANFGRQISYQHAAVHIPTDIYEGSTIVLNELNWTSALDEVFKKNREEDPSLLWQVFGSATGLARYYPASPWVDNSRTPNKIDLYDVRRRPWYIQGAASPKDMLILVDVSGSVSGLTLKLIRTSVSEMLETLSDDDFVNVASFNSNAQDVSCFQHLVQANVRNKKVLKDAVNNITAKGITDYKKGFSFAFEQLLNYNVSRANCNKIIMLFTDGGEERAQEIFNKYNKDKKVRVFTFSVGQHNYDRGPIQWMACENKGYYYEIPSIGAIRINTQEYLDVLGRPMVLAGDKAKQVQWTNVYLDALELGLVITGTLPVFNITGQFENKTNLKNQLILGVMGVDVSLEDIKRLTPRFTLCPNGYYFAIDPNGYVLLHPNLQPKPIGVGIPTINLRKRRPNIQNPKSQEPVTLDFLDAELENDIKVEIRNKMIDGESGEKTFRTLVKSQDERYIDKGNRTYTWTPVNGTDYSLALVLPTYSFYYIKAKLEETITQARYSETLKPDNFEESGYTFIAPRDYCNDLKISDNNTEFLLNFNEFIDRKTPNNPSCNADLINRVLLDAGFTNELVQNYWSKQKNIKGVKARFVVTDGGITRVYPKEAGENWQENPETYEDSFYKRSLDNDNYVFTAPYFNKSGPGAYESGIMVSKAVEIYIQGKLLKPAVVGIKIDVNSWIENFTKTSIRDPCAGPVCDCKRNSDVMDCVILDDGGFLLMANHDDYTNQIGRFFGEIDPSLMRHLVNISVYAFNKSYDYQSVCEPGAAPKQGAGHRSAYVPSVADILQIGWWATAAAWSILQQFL
Sequence of human Cav2.2 (P54289 947-1103 partner limits assumed): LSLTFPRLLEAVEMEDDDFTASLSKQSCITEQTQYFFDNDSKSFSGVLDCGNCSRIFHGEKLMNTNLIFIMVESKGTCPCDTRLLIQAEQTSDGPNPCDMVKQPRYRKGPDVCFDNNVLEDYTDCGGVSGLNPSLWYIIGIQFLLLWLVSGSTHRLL
Sequence of human Cav2.2 (P54284 whole entry partner): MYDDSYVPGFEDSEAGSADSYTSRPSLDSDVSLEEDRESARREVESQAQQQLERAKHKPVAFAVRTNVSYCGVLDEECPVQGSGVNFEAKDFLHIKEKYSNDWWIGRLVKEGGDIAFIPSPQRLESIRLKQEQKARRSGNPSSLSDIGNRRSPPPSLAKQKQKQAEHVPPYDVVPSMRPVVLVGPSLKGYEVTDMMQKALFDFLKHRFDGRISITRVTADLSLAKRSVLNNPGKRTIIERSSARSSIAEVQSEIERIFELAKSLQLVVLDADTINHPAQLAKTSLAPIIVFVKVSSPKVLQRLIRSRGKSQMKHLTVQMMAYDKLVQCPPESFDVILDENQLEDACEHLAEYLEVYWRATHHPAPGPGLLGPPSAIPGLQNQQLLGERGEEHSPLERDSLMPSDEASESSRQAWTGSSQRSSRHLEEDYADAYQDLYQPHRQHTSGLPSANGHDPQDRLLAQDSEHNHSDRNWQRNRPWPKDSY

For the first assay, the target named is human Cav2.2 (Homo sapiens, UniProt Q00975). As to the kind of experiment: Assessment of calcium channel activity using FLIPR (Ca2+ influx in IMR32 cells). It counts as cell-based. To be noted: 3 minute pre-incubation with compound (*), 2 μM nifedipine, depolarized with 80 mM KCl. Summed up:
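IC50 came from sigmoidal non-linear regression of percent inhibition, relative to uninhibited activity, across compound concentrations. Calcium influx was measured by FLIPR in IMR32 cells plated at 1-1.2×10^5 cells/well and cultured 48 h at 37 °C.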
What is called IC50 is the concentration needed to halve the response being measured. As to `CC(C)C(C(=O)N[C@H]1CC[C@@H]2CN(Cc3ccc(F)c(C(F)(F)F)c3)C[C@@H]21)c1ccccc1` (stereo partly drawn) [Example 100, N-{(3aR,4S,6aS)-2-[4-fluoro-3-(trifluoromethyl)benzyl]octahydrocyclopenta[c]pyrrol-4-yl}-3-methyl-2-phenylbutanamide], the IC50 stood at 4.2 µM.

Staying with this assay, now noted: 60 minute pre-incubation with compound, 2 μM nifedipine, depolarized with 80 mM KCl.
On to `CC[C@H](C)[C@@H](C(=O)N[C@H]1CC[C@@H]2CN(S(=O)(=O)c3ccc(C(F)(F)F)cc3)C[C@@H]21)N(C)C(=O)OC(C)(C)C` [Example 333, tert-butyl methyl((2S,3S)-3-methyl-1-oxo-1-((3aR,4S,6aS)-2-(4-(trifluoromethyl)phenylsulfonyl)octahydrocyclopenta[c]pyrrol-4-ylamino)pentan-2-yl)carbamate], for which the half-inhibitory concentration (IC50) is 0.57 µM.
The same measure, in the same setting: as for `c1ccc(CN2C[C@@H]3CC[C@H](NC4CC4)[C@@H]3C2)cc1` (relative stereo) [Example 198, (3aS*,4S*,6aR*)-2-benzyl-N-cyclopropyloctahydrocyclopenta[c]pyrrol-4-amine], the figure is 40.4 µM.
On the same count and under the same terms, as for `CCC[C@H](NC(C)C)C(=O)N[C@@H]1CC[C@H]2CN(S(=O)(=O)c3cccc(C(F)(F)F)c3)C[C@H]21` [Example 484, N^2-isopropyl-N^1-((3aS,4R,6aR)-2-{[3-(trifluoromethyl)phenyl]sulfonyl}octahydrocyclopenta[c]pyrrol-4-yl)-L-norvalinamide], the figure is 0.97 µM.
On the same count and under the same terms, as for `CC(C)C[C@H](NS(C)(=O)=O)C(=O)N[C@H]1CC[C@@H]2CN(Cc3cccc(C(F)(F)F)c3)C[C@@H]21` [Example 516, N^2-(methylsulfonyl)-N^1-{(3aR,4S,6aS)-2-[3-(trifluoromethyl)benzyl]octahydrocyclopenta[c]pyrrol-4-yl}-L-leucinamide], the figure is 2.99 µM; as for `CN[C@@H](CC(C)(C)C)C(=O)N(C)[C@H]1CC[C@@H]2CN(S(=O)(=O)c3ccc(C(F)(F)F)cc3)C[C@@H]21` [Example 437, N^1,N^2,4-trimethyl-N^1-((3aR,4S,6aS)-2-{[4-(trifluoromethyl)phenyl]sulfonyl}octahydrocyclopenta[c]pyrrol-4-yl)-L-leucinamide], 2.43 µM; as for `CN[C@@H](CC(C)C)C(=O)N[C@@H]1CC[C@H]2CN(S(=O)(=O)c3ccc(F)c(C(F)(F)F)c3)C[C@H]21` [Example 407, N^1-((3aS,4R,6aR)-2-{[4-fluoro-3-(trifluoromethyl)phenyl]sulfonyl}octahydrocyclopenta[c]pyrrol-4-yl)-N^2-methyl-L-leucinamide], 5.43 µM.
`O=S(=O)(N[C@@H]1CC[C@H]2CN(Cc3ccccc3)C[C@H]21)c1cccc(C(F)(F)F)c1` [Example 190, N-[(3aS,4R,6aR)-2-benzyloctahydrocyclopenta[c]pyrrol-4-yl]-3-(trifluoromethyl)benzenesulfonamide]: the IC50 turned out to be 1.3 µM.
In the case of `CN[C@@H](CC(C)C)C(=O)N[C@@H]1CC[C@H]2CN(C(c3ccccc3)c3ccccc3)C[C@H]21` [Example 469, N^1-[(3aS,4R,6aR)-2-benzhydryloctahydrocyclopenta[c]pyrrol-4-yl]-N^2-methyl-L-leucinamide], the concentration for half-maximal inhibition (IC50) worked out at 2.24 µM.
On the same count and under the same terms, as for `O=S(=O)(c1cccc(C(F)(F)F)c1)N1C[C@H]2CC[C@H](NCc3ccc(F)cc3)[C@H]2C1` [Example 286, (3aR,4S,6aS)—N-(4-fluorobenzyl)-2-{[3-(trifluoromethyl)phenyl]sulfonyl}octahydrocyclopenta[c]pyrrol-4-amine], the figure is 0.38 µM; as for `CN[C@H](C(=O)N[C@@H]1CC[C@H]2CN(S(=O)(=O)c3ccc(F)cc3)C[C@H]21)C(C)C` [Example 400, N^1-{(3aS,4R,6aR)-2-[(4-fluorophenyl)sulfonyl]octahydrocyclopenta[c]pyrrol-4-yl}-N^2-methyl-L-valinamide], 6.86 µM.
On the same count and under the same terms, as for `CC(C)C[C@@H](C(=O)N[C@@H]1CC[C@H]2CN(S(=O)(=O)c3cccc(C(F)(F)F)c3)C[C@H]21)N1CCCCC1` [Example 321, (2S)-4-methyl-2-piperidin-1-yl-N-((3aS,4R,6aR)-2-{[3-(trifluoromethyl)phenyl]sulfonyl}octahydrocyclopenta[c]pyrrol-4-yl)pentanamide], the figure is 0.44 µM; as for `CC(C)(C)C[C@H](N)C(=O)N[C@H]1CC[C@@H]2CN(S(=O)(=O)c3ccc(F)cc3)C[C@@H]21` [Example 453, N^1-{(3aR,4S,6aS)-2-[(4-fluorophenyl)sulfonyl]octahydrocyclopenta[c]pyrrol-4-yl}-4-methyl-L-leucinamide], 4.23 µM; as for `CCC[C@H](NC)C(=O)N[C@H]1CC[C@@H]2CN(S(=O)(=O)c3ccccc3C(F)(F)F)C[C@@H]21` [Example 550, N^2-methyl-N^1-((3aR,4S,6aS)-2-{[2-(trifluoromethyl)phenyl]sulfonyl}octahydrocyclopenta[c]pyrrol-4-yl)-L-norvalinamide], 2.57 µM.
On the same count and under the same terms, as for `CNC(CC(C)C)C(=O)N1CC2CCC(N(C3CC3)S(=O)(=O)c3cccc(C(F)(F)F)c3)C2C1` [Example 559, N-cyclopropyl-N-[(3aS*,4S*,6aR*)-[2-(N-methyl-L-leucyl)octahydrocyclopenta[c]pyrrol-4-yl]-3-(trifluoromethyl)benzenesulfonamide], the figure is 1.68 µM; as for `CC(C)(C)C[C@H](NCC1CCCCC1)C(=O)N[C@H]1CC[C@@H]2CN(S(=O)(=O)c3ccc(C(F)(F)F)cc3)C[C@@H]21` [Example 475, N^2-(cyclohexylmethyl)-4-methyl-N^1-((3aR,4S,6aS)-2-{[4-(trifluoromethyl)phenyl]sulfonyl}octahydrocyclopenta[c]pyrrol-4-yl)-L-leucinamide], 1.84 µM.
Turning to `O=C(N[C@H]1CC[C@H]2CN(S(=O)(=O)CCc3ccc(F)cc3)C[C@H]21)C(C1CCCCC1)C1CCCCC1` [Example 209, 2,2-dicyclohexyl-N-((3aS,4S,6aR)-2-{[2-(4-fluorophenyl)ethyl]sulfonyl}octahydrocyclopenta[c]pyrrol-4-yl)acetamide], the IC50 is greater than 100 µM.
On to `CC(C)Cc1ccc([C@H](C)C(=O)N[C@@H]2CC[C@H]3CN(Cc4ccccc4)C[C@H]32)cc1` [Example 23, (2S)—N-[(3aS,4R,6aR)-2-benzyloctahydrocyclopenta[c]pyrrol-4-yl]-2-(4-isobutylphenyl)propanamide], for which the IC50 was found to be 2.5 µM.
In the case of `O=C(CC(c1ccccc1)c1ccccc1)N[C@H]1CC[C@H]2CN(Cc3cccc(C(F)(F)F)c3)C[C@H]21` (relative stereo) [Example 131, 3,3-diphenyl-N-{(3aS*,4S*,6aR*)-2-[3-(trifluoromethyl)benzyl]octahydrocyclopenta[c]pyrrol-4-yl}propanamide], the IC50 was 0.7 µM.
The same measure, in the same setting: as for `CCCN(C(=O)[C@H](CC(C)(C)C)NC)[C@H]1CC[C@@H]2CN(S(=O)(=O)c3ccc(C(F)(F)F)cc3)C[C@@H]21` [Example 435, N^2,4-dimethyl-N^1-propyl-N^1-((3aR,4S,6aS)-2-{[4-(trifluoromethyl)phenyl]sulfonyl}octahydrocyclopenta[c]pyrrol-4-yl)-L-leucinamide], the figure is 2.32 µM; as for `CC(C)C[C@@H](C(=O)N[C@@H]1CC[C@H]2CN(S(=O)(=O)c3cccc(C(F)(F)F)c3)C[C@H]21)N1CCCC1` [Example 320, (2S)-4-methyl-2-pyrrolidin-1-yl-N-((3aS,4R,6aR)-2-{[3-(trifluoromethyl)phenyl]sulfonyl}octahydrocyclopenta[c]pyrrol-4-yl)pentanamide], 0.7 µM; as for `O=C(N[C@H]1CC[C@H]2CN(CCCc3cccc(F)c3)C[C@H]21)C(C1CCCCC1)C1CCCCC1` [Example 68, 2,2-dicyclohexyl-N-{(3aS,4S,6aR)-2-[3-(3-fluorophenyl)propyl]octahydrocyclopenta[c]pyrrol-4-yl}acetamide], 1.7 µM.
For `CCC[C@H](NC)C(=O)N[C@H]1CC[C@@H]2CN(S(=O)(=O)c3ccc(Cl)c(Cl)c3)C[C@@H]21` [Example 542, N^1-{(3aR,4S,6aS)-2-[(3,4-dichlorophenyl)sulfonyl]octahydrocyclopenta[c]pyrrol-4-yl}-N^2-methyl-L-norvalinamide], the IC50 turned out to be 2.36 µM.
`CCC[C@H](NC)C(=O)N[C@H]1CC[C@@H]2CN(S(=O)(=O)c3ccc(C(F)(F)F)cc3Cl)C[C@@H]21` [Example 552, N^1-((3aR,4S,6aS)-2-{[2-chloro-4-(trifluoromethyl)phenyl]sulfonyl}octahydrocyclopenta[c]pyrrol-4-yl)-N^2-methyl-L-norvalinamide]: the half-inhibitory concentration (IC50) was found to be 0.78 µM.
On the same count and under the same terms, as for `CC(C)CN[C@@H](CC(C)(C)C)C(=O)N[C@H]1CC[C@@H]2CN(S(=O)(=O)c3ccc(C(F)(F)F)cc3)C[C@@H]21` [Example 473, N^2-isobutyl-4-methyl-N^1-((3aR,4S,6aS)-2-{[4-(trifluoromethyl)phenyl]sulfonyl}octahydrocyclopenta[c]pyrrol-4-yl)-L-leucinamide], the figure is 2.66 µM; as for `CC(C)(C)C[C@H](NC1CCCC1)C(=O)N[C@H]1CC[C@@H]2CN(S(=O)(=O)c3ccc(C(F)(F)F)cc3)C[C@@H]21` [Example 501, N^2-cyclopentyl-4-methyl-N^1-((3aR,4S,6aS)-2-{[4-(trifluoromethyl)phenyl]sulfonyl}octahydrocyclopenta[c]pyrrol-4-yl)-L-leucinamide], 0.82 µM.
On the same count and under the same terms, as for `CN[C@@H](CC(C)C)C(=O)N[C@H]1CC[C@@H]2CN(S(=O)(=O)c3cccc(C(F)(F)F)c3)C[C@@H]21` [Example 384, N^2-methyl-N^1-((3aR,4S,6aS)-2-{[3-(trifluoromethyl)phenyl]sulfonyl}octahydrocyclopenta[c]pyrrol-4-yl)-L-leucinamide], the figure is 1.14 µM.

Staying with this assay, now noted: IMR-32, @ 10 μM, 3 minute pre-incubation (*), read-out: percent inhibition.
In general, inhibition refers to how much of the control response was suppressed. As for `COc1cccc(CN2C[C@H]3CC[C@H](NC(=O)C(c4ccccc4)C(C)C)[C@H]3C2)c1` (stereo partly drawn) [Example 90, N-[(3aR,4S,6aS)-2-(3-methoxybenzyl)octahydrocyclopenta[c]pyrrol-4-yl]-3-methyl-2-phenylbutanamide], the inhibition at 10 µM is 83%.
